From patent US12478619B2, “Method of treatment with milsaperidone” (Vanda Pharmaceuticals Inc., priority 2023, dated 2025)
Blank lines part the entries; values can stand above or below the compound they belong to.

How the values were obtained:
[1] = Study 3201: serum urate in patients with acute manic episodes associated with bipolar I disorder, iloperidone vs placebo, 4 weeks; type: in vivo, human; conditions: for Serum urate LS Mean Change (SE) from baseline: iloperidone 24 mg/day (12 mg bid) oral, ANCOVA
Experimental: A multi-center, randomized, double-blind, placebo-controlled study (“Study 3201”) is performed to evaluate the safety and efficacy of iloperidone for four (4) weeks in the treatment of patients with acute manic episodes associated with bipolar I disorder. Patients in the study are randomized to orally receive either iloperidone at a dose of 24 mg/day given in a divided dose as 12 mg twice daily (bid), or matched placebo.
These increases are illustrated in FIG. 3 using solid data points.
To test the hypothesis of altered urate serum levels in association with variants in the SLC2A9 gene, whole genome sequencing is conducted from blood samples, genotype status is obtained through standard data analysis, and linear models for SLC2A9 variants are performed on urate concentration in samples collected at baseline (corrected for PCs, age, sex) and samples collected at the end of the study (EOS).

[2] = human, in vivo
Experimental: A study is performed to evaluate the efficacy and safety of iloperidone compared with placebo and active control (ziprasidone) in subjects with acute schizophrenia (“Study 3101”). Patients are randomized to receive one of iloperidone at a dose of 24 mg/day given in a divided dose as 12 mg twice daily (bid), active comparator ziprasidone, or placebo. […] Uric acid results are converted to SI units using the conversion 1 mg/dL=59.5 μmol/L.
Results are provided in Table 7 below, including an increase of 28.0 μmol/L for iloperidone compared to a decrease of 4.2 μmol/L in placebo groups.
Patient genotypes are obtained via a commercial 500 k SNP Gene Chip Human Mapping Array. To test the hypothesis of altered urate serum levels in association with variants in SLC2A9, Linear models for SLC2A9 variants are performed on urate at baseline levels (corrected for PCs, age, sex) followed by samples collected at end of study (EOS).

Increase of serum urate levels ([1]; 24 mg/day given as 12 mg bid, value in mg/dL): ~0.457 mg/dL
Serum urate LS Mean Difference (95% CI), iloperidone vs placebo ([1]; Day 7, 24 mg/day): 1.3 (−9.29, 11.88) μmol/L
Serum urate LS Mean Change (SE) from baseline ([1]; Day 7): −2.7 (−4.07), 199 μmol/L
Serum urate LS Mean Difference (95% CI), iloperidone vs placebo ([1]; Day 14, 24 mg/day): 15.3 (4.50, 26.15) μmol/L
Serum urate LS Mean Change (SE) from baseline ([1]; Day 14): 12.6 (−4.28), 173 μmol/L
Serum urate LS Mean Difference (95% CI), iloperidone vs placebo ([1]; Day 21, 24 mg/day): 21.0 (8.91, 33.18) μmol/L
Serum urate LS Mean Change (SE) from baseline ([1]; Day 21): 19.1 (−5.24), 157 μmol/L
Serum urate LS Mean Change (SE) from baseline ([1]; Day 28 (endpoint)): 27.2 (−4.93), 142 μmol/L
Serum urate LS Mean Change (SE) from baseline ([1]; Day 28 (endpoint), listed as FANAPT® iloperidone): approximately 27.2 μmol/L
Serum urate LS Mean Change (SE) from baseline ([1]; Day 28 (endpoint), listed as iloperidone): 27.2 µmol/L
Increase in serum urate from baseline compared to placebo ([1]; Day 28, 24 mg/day): 4 fold
Serum urate LS Mean Difference (95% CI), iloperidone vs placebo ([1]; Day 28, 24 mg/day): 27.1 (14.94, 39.20) μmol/L
Change in serum urate from baseline (mean, observed cases) ([1]; Day 28, 24 mg/day, FIG. 3): 33.4 µmol/L
LS Mean Change (SE) in Serum Urate ([1]; Day 28, genotype AA): 25.74 (6.53), 73 μmol/L
Serum urate LS Mean Difference (95% CI), iloperidone vs placebo ([1]; Day 28, genotype AA): 31.91 (14.82, 49) μmol/L
LS Mean Change (SE) in Serum Urate ([1]; Day 28, genotype AA, sex F): 25.48 (9.16), 34 μmol/L
Serum urate LS Mean Difference (95% CI), iloperidone vs placebo ([1]; Day 28, genotype AA, sex F): 27.85 (2.93, 52.76) μmol/L
LS Mean Change (SE) in Serum Urate ([1]; Day 28, genotype AA, sex M): 28.89 (8.7), 39 μmol/L
Serum urate LS Mean Difference (95% CI), iloperidone vs placebo ([1]; Day 28, genotype AA, sex M): 35.52 (12.82, 58.22) μmol/L
LS Mean Change (SE) in Serum Urate ([1]; Day 28, genotype AG): 24.62 (7.61), 51 μmol/L
Serum urate LS Mean Difference (95% CI), iloperidone vs placebo ([1]; Day 28, genotype AG): 14.84 (−4.18, 33.86) μmol/L
LS Mean Change (SE) in Serum Urate ([1]; Day 28, genotype AG, sex F): 0.06 (10.14), 27 μmol/L
Serum urate LS Mean Difference (95% CI), iloperidone vs placebo ([1]; Day 28, genotype AG, sex F): −7.9 (−34.82, 19.03) μmol/L
LS Mean Change (SE) in Serum Urate ([1]; Day 28, genotype AG, sex M): 53.41 (10.84), 24 μmol/L
Serum urate LS Mean Difference (95% CI), iloperidone vs placebo ([1]; Day 28, genotype AG, sex M): 40.79 (14.61, 66.96) μmol/L
LS Mean Change (SE) in Serum Urate ([1]; Day 28, genotype GG): 40.09 (12.36), 18 μmol/L
Serum urate LS Mean Difference (95% CI), iloperidone vs placebo ([1]; Day 28, genotype GG): 56.95 (18.91, 94.99) μmol/L
LS Mean Change (SE) in Serum Urate ([1]; Day 28, genotype GG, sex F): −0.19 (19.49), 7 μmol/L
Serum urate LS Mean Difference (95% CI), iloperidone vs placebo ([1]; Day 28, genotype GG, sex F): 3.08 (−50.97, 57.13) μmol/L
LS Mean Change (SE) in Serum Urate ([1]; Day 28, genotype GG, sex M): 65.61 (15.42), 11 μmol/L
Serum urate LS Mean Difference (95% CI), iloperidone vs placebo ([1]; Day 28, genotype GG, sex M): 102.96 (48.93, 156.99) μmol/L
Mean Change (SE) from Baseline in Serum Urate, Observed Cases ([1]; Day 28, rs7442295 genotype AA, 24 mg/day): 30.5 (50.99), 73 μmol/L
Mean Change (SE) from Baseline in Serum Urate, Observed Cases ([1]; Day 28, rs7442295 genotype AG, 24 mg/day): 31.9 (59.39), 51 μmol/L
Mean Change (SE) from Baseline in Serum Urate, Observed Cases ([1]; Day 28, rs7442295 genotype GG, 24 mg/day): 49.1 (60.56), 18 μmol/L
LS Mean Change (SE) in Serum Urate ([1]; EOS (last observation carried forward), genotype AA, sex F): 14.93 (8.59), 41 μmol/L
LS Mean Change (SE) in Serum Urate ([1]; EOS (last observation carried forward), genotype AA, sex M): 20.63 (7.29), 60 μmol/L
LS Mean Change (SE) in Serum Urate ([1]; EOS (last observation carried forward), genotype AG, sex F): −2.27 (8.75), 39 μmol/L
LS Mean Change (SE) in Serum Urate ([1]; EOS (last observation carried forward), genotype AG, sex M): 32.96 (8.74), 41 μmol/L
LS Mean Change (SE) in Serum Urate ([1]; EOS (last observation carried forward), genotype GG, sex F): −6.03 (20.3), 7 μmol/L
LS Mean Change (SE) in Serum Urate ([1]; EOS (last observation carried forward), genotype GG, sex M): 67.03 (15.38), 12 μmol/L
Percentage of patients with serum urate above ULN ([1]; EOS, Female (ULN 394 μmol/l), rs7442295 AA): 15.0%
Percentage of patients with serum urate above ULN ([1]; EOS, Female (ULN 394 μmol/l), rs7442295 AG): 8.1%
Percentage of patients with serum urate above ULN ([1]; EOS, Female (ULN 394 μmol/l), rs7442295 GG): 0.0%
Percentage of patients with serum urate above ULN ([1]; EOS, Male (ULN 453 μmol/l), rs7442295 AA): 12.3%
Percentage of patients with serum urate above ULN ([1]; EOS, Male (ULN 453 μmol/l), rs7442295 AG): 13.5%
Percentage of patients with serum urate above ULN ([1]; EOS, Male (ULN 453 μmol/l), rs7442295 GG): 33.3%
Percentage of patients with serum urate above ULN ([1]; EOS, Male (ULN 453 μmol/l), rs7442295 GG, listed as iloperidone): about 33.3%
LS Mean Change (SE) in Serum Urate ([1]; EOS, genotype AA): 16.73 (5.66), 101 μmol/L
Serum urate LS Mean Difference (95% CI), iloperidone vs placebo ([1]; EOS, genotype AA): 18.23 (3.19, 33.28) μmol/L
Serum urate LS Mean Difference (95% CI), iloperidone vs placebo ([1]; EOS, genotype AA, sex F): 15.97 (−6.71, 38.64) μmol/L
Serum urate LS Mean Difference (95% CI), iloperidone vs placebo ([1]; EOS, genotype AA, sex M): 18.99 (−0.89, 38.86) μmol/L
LS Mean Change (SE) in Serum Urate ([1]; EOS, genotype AG): 15.05 (6.29), 80 μmol/L
Serum urate LS Mean Difference (95% CI), iloperidone vs placebo ([1]; EOS, genotype AG): 8.61 (−8.27, 25.48) μmol/L
Serum urate LS Mean Difference (95% CI), iloperidone vs placebo ([1]; EOS, genotype AG, sex F): −1.4 (−25.85, 23.06) μmol/L
Serum urate LS Mean Difference (95% CI), iloperidone vs placebo ([1]; EOS, genotype AG, sex M): 19.58 (−2.91, 42.08) μmol/L
LS Mean Change (SE) in Serum Urate ([1]; EOS, genotype GG): 40.4 (12.41), 19 μmol/L
Serum urate LS Mean Difference (95% CI), iloperidone vs placebo ([1]; EOS, genotype GG): 55.4 (18.68, 92.13) μmol/L
Serum urate LS Mean Difference (95% CI), iloperidone vs placebo ([1]; EOS, genotype GG, sex F): 4.54 (−50.43, 59.52) μmol/L
Serum urate LS Mean Difference (95% CI), iloperidone vs placebo ([1]; EOS, genotype GG, sex M): 88.45 (38.7, 138.21) μmol/L
Increases in serum urate levels in iloperidone-treated patients homozygous for rs7442295 (G) ([1]; GG genotype compared with other iloperidone-treated patients): nearly twice as large
Increase in percentage of male rs7442295-G/G individuals with high urate levels, baseline to end of study ([1]; male, GG, from about 8.3% at baseline): approximately 4 fold
Compound: COc1cc(C(C)=O)ccc1OCCCN1CCC(c2noc3cc(F)ccc23)CC1 [Iloperidone, 1-[4-[3-[4-(6-flouro-1,2-benzisoxazol-3-yl)-1-piperidinyl]propoxy]-3-methoxyphenyl]ethanone]
Change in SUC relative to baseline at EOS, rs7442295-G/G vs A/G or A/A ([1]; iloperidone-treated patients, FIG. 9, panova<0.0001): significantly greater change from baseline

Serum urate LS mean change from baseline to endpoint, ziprasidone treatment arm [2]: 13.1 µmol/L
Compound: O=C1Cc2cc(CCN3CCN(c4nsc5ccccc45)CC3)c(Cl)cc2N1 [ziprasidone]
